We go through 20 molecules from US5137889A, “Dihydropyridine derivatives and process for preparing the same” (Otsuka Pharmaceutical Co., Ltd., priority 1983, dated 1992).

Assay [1] has as its target T1, Calmodulin-cyclic-AMP phosphodiesterase (Bos taurus, UniProt P62157).
T1 construct: tissue Amano & Co. (calmodulin only); host or cells: phosphodiesterase: bovine heart, partially purified; calmodulin: bovine brain
As to the kind of experiment: Calmodulin-cyclic-AMP phosphodiesterase inhibitory activity (presence of calmodulin). Type of assay: biochemical, bovine. From the text: (1) Calmodulin: A calmodulin product manufactured by Amano & Co., which was isolated from the brain of bovine, and purified so as to be considered as a single substance with respect to SDS-page (polyacrylamide gel electrophoresis) method.
(§1) (2) Calmodulin-dependent cyclic-AMP phosphodiesterase (EC 3.1.4.17): An enzyme substance isolated from the heart of bovine and purified partially by a method of modified version of the disclosure in H. C. Ho, T. S. Teo, et al.: "Biochim. Biophys. Acta", 429, 461 (1976).
(§2) (3) 5'-Nucleotidase (EC 3.1.3.5): Grade IV substance (isolated from Crotalus adamanteus venom) manufactured by Sigma & Co.
(§3) (4) Others: Remainder of the reagents used in the test were those of reagent grade chemicals manufactured by Wako Pure-Chemical Industries, Ltd.
(§4) Calmodulin inhibitory activity of each of the test compounds was measured by a method of modified version of the disclosure in T. S. Teo and T. H. Wang: "J. Bio. Chem.", 248, 588 (1973).
(2) Calmodulin: One unit thereof stimulates 0.015 activated unit of cyclic-AMP phosphodiesterase to 50% of the maximum activity of the enzyme.
(§5) (3) 5'-Nucleotidase: One unit thereof hydrolyzes 1.0 micromole of inorganic phosphorus from adnosine 5'-monophosphate per minute at pH 9.0 at 37° C.
(1) Calmodulin-cyclic-AMP phosphodiesterase inhibitory activity:
40 mM of Imidazol, 20 mM of MgCl2, 20 mM of CaC12, 0.008 unit of cyclic-AMP phosphodiesterase, 1.0 unit of calmodulin, 0.2 unit of 5'-nucleotidase and 1.0 ml of 10 mM-tris(hydroxymethyl)aminomethane/HCl buffer solution (pH 7.0) containing 0.5 mM of cyclic-AMP were mixed together, and reacted at 30° C. for 30 minutes. Each of the test compounds was dissolved in methanol or N,N-dimethylformamide as the solvent, provided that the quantity of the solvent was not exceed 2% of the total amount of the mixture. After the reaction was completed, the reaction mixture was ice-cooled, and 0.5 ml each of aqueous solutions of 16.5%-trichloroacetic acid, 1%-thiourea, 3%-ammonium ferrous sulfate were respectively added to the reaction mixture. Further, 0.15 ml of 4.4%-ammonium molibdate solution was added to the mixture and the whole of the mixture was stirred, and was centrifuged at 3,000 r.p.m. for 10 minutes. Then, the centrifuged mixture was allowed to stand at a room temperature for 20 minutes. The OD660 nm (optical density at 660 nm) was measured.

Assay [2] addresses T2, Cyclic-AMP phosphodiesterase (Bos taurus, UniProt P14100).
T2 construct: from tissue; host or cells: bovine heart, partially purified
The assay can be described thus: Cyclic AMP phosphodiesterase inhibitory activity (absence of calmodulin, EGTA in place of CaCl2). Type of assay: biochemical, bovine. Particulars: 1 mM EGTA in place of CaCl2; 3 hours.
Text: as §1, §2, §3, §4, §5
(2) Cyclic AMP phosphodiesterase inhibitory activity:
The reaction was conducted by a method similar to that described in (1) as mentioned above, except that 1 mM of EGTA [ethylene glycol-bis(β-amino ethyl ether)-N,N-tetraacetic acid] was used in place of 20 mM of CaCl2. The reaction was conducted for 3 hours.

Assay [3] relates to SHR-rats (spontaneously hypertensive rats). The settings on record: 30 mg/kg p.o.
Procedure: Systolic blood pressures and heart beat of SHR-rats (spontaneously hypertensive rats) were determined by a "tail cuff method". Thus the test animal was placed in a thermostat chamber (Type: FR-12RS, manufactured by Isuze & Co.) and was warmed at 40° C. for 15 minutes so as to vasodilate the tail arteria, the systolic blood pressures were measured by an electro sphygmomanometer (Type: PE-300, manufactured by Narco-Biosystems, Inc.) and recorded by an ink-writing recorder (Type: RECTI-HORIZ 8s, manufactured by San-Ei Instrument & Co.). The experiments were conducted under non-anesthetized and semi-confinement conditions. The test compound was orally administered forcedly by using a sonde for oral administration. The test compound was suspended in 0.15%-gum arabic powder aqueous solution so as to make the quantity of the test compound to 2.5 ml/kg. The test animal was not fasted, and the systolic blood pressures (mm-Hg) were measured before the administration (hereinafter referred to as "PRE") and after the administration (8, 24, 30, 48, 54 and 72 hours after the administration) of the test compound. The data of systolic blood pressure measured before the administration are shown in absolute value of mmHg, and the data measured after the administration are shown in the differences from the absolute values.
The mark [4] stands for this setting: with calmodulin and CaCl2, pH 7.0, 30° C., 30 minutes, read-out: Calmodulin-cyclic-AMP phosphodiesterase IC50 (converted).

Read-outs that look alike come from different tables or passages of the source. Where only a bound is given, the exact number is not on record here.

Usually IC50 stands for the concentration at which inhibition is half-maximal.

T2 sequence (P14100 1-514 isoform P14100-2): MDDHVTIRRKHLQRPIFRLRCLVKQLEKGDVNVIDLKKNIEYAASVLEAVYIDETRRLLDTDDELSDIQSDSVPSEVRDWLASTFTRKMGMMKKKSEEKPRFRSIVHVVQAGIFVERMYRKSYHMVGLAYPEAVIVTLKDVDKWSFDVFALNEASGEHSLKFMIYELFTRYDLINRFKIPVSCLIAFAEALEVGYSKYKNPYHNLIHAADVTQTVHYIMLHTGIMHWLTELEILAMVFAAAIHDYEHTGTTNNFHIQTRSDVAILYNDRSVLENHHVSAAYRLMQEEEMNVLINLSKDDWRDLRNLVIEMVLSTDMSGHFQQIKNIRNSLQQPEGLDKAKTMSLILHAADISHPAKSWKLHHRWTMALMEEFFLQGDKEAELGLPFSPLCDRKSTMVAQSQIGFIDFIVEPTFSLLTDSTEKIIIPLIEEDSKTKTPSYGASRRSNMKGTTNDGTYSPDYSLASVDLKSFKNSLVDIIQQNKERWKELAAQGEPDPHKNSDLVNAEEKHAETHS

`COC(=O)C1=C(C)NC(C)=C(C(=O)OC/C=C/c2ccc(O)c(OC)c2)C1c1cccc([N+](=O)[O-])c1` (stereo not shown) [Test Compound 7, Methyl 3-(3-methoxy-4-hydroxyphenyl)-2(E)-propenyl 1,4-dihydro-2,6-dimethyl-4-(3-nitrophenyl)pyridine-3,5-dicarboxylate]: the IC50 in assay [1] (setting [4]) was 10.5 µM.

For `COC(=O)C1=C(C)NC(C)=C(C(=O)OC/C=C/c2cccc(O)c2)C1c1cccc([N+](=O)[O-])c1` (stereo not shown) [Test Compound 25, Methyl 3-(3-hydroxyphenyl)-2(E)propenyl 1,4-dihydro-2,6-dimethyl-4-(3-nitrophenyl)-pyridine-3,5-dicarboxylate], the results for the IC50 in assay [1] (setting [4]) and in assay [2] were 1.94 µM and 53 µM, respectively.

Regarding `COC(=O)C1=C(C)NC(C)=C(C(=O)OCCN2CCN(CC#Cc3ccccc3)CC2)C1c1cccc([N+](=O)[O-])c1` (stereo not shown) [Test Compound 23, Methyl 2-[4-(3-phenyl-2-propynyl)-1-piperazinyl]ethyl 1,4-dihydro-2,6-dimethyl-4-(3-nitrophenyl)pyridine-3,5-dicarboxylate], the IC50 in assay [1] (setting [4]) is 14.3 µM; in assay [2], more than 179 µM.

As to “methyl 3-[4-(2-tetrahydropyranyloxyphenyl)]-2-propynyl 1,4-dihydro-2,6-dimethyl-4-(3-nitrophenyl)pyridine-3,5-dicarboxylate [Example 3]”, in assay [3], the “Blood pressure after the administration, 24 hours (difference from the absolute value before administration)” value is given as -31.0 mm-Hg; the “Blood pressure after the administration, 30 hours (difference from the absolute value before administration)” value was -30.8 mm-Hg; the “Blood pressure after the administration, 48 hours (difference from the absolute value before administration)” value was -15.6 mm-Hg; the “Blood pressure after the administration, 54 hours (difference from the absolute value before administration)” value was -12.6 mm-Hg.

Turning to `COC(=O)C1=C(C)NC(C)=C(C(=O)OCCN2CC=C(c3ccc(C)cc3)CC2)C1c1cccc([N+](=O)[O-])c1` (stereo not shown) [Test Compound 17, Methyl 2-[4-(4-methylphenyl)-1,2,3,6-tetra-hydropyridyl]ethyl 1,4-dihydro-2,6-dimethyl-4-(3-nitrophenyl)pyridine-3,5-dicarboxylate], the results for the IC50 in assay [1] (setting [4]) and in assay [2] were 10.3 µM and more than 188 µM, respectively.

Turning to `COC(=O)C1=C(C)NC(C)=C(C(=O)OC/C=C/c2ccco2)C1c1cccc([N+](=O)[O-])c1` (stereo not shown) [Test Compound 10, Methyl 3-furyl-2(E)-propenyl 1,4-dihydro-2,6-dimethyl-4-(3-nitrophenyl)pyridine-3,5-dicarboxylate], the IC50 in assay [1] (setting [4]) was 3.54 µM; in assay [2], more than 228 µM.

In the case of “methyl 3-(4-tetrahydropyranyloxyphenyl)-2(E)-propenyl 1,4-dihydro-2,6-dimethyl-4-(3-nitrophenyl)pyridine-3,5-dicarboxylate [Example 1]”, the “Blood pressure after the administration, 8 hours (difference from the absolute value before administration)” value in assay [3] (8 hours) was -20.3 mm-Hg. For the same molecule, in assay [3], the “Blood pressure after the administration, 24 hours (difference from the absolute value before administration)” value was -41.0 mm-Hg; the “Blood pressure after the administration, 30 hours (difference from the absolute value before administration)” value is on record as -52.0 mm-Hg; the “Blood pressure after the administration, 48 hours (difference from the absolute value before administration)” value is listed as -26.5 mm-Hg; the “Blood pressure after the administration, 54 hours (difference from the absolute value before administration)” value was -19.8 mm-Hg. Further, the “Blood pressure after the administration, 24 hours (difference from the absolute value before administration)” value in assay [3] (listed as 6) is given as “+1.8 mm-Hg”. The “Blood pressure after the administration, 72 hours (difference from the absolute value before administration)” value in assay [3] (72 hours) is given as -12.5 mm-Hg.

For the molecule `COC(=O)C1=C(C)NC(COC/C=C/c2ccc(O)cc2)=C(C(=O)OC)C1c1cccc([N+](=O)[O-])c1` (stereo not shown) [Test Compound 21, Dimethyl 1,4-dihydro-2-[3-(4-hydroxyphenyl)-2(E)-propenyloxymethyl]-6-methyl-4-(3-nitrophenyl)pyridine-3,5-dicarboxylate], the IC50 in assay [1] (setting [4]) is 12.1 µM; in assay [2], more than 202 µM.

On to `COC(=O)C1=C(C)NC(C)=C(C(=O)OC/C=C/c2ccc(O)cc2)C1c1ccccc1` (stereo not shown) [Test Compound 18, Methyl 3-(4-hydroxyphenyl)-2(E)-propenyl 1,4-dihydro-2,6-dimethyl-4-phenylpyridine-3,5-dicarboxylate], for which the IC50 in assay [1] (setting [4]) is 16.2 µM.

On to `COC(=O)C1=C(C)NC(C)=C(C(=O)OCCN(C)Cc2ccccc2)C1c1cccc([N+](=O)[O-])c1` (stereo not shown) [Test Compound 26, Methyl 2-(N-methyl-N-benzylamino)ethyl 1,4-dihydro-2,6-dimethyl-4-(3-nitrophenyl)pyridine-3,5-dicarboxylate, reference compound], for which, in assay [1], the IC50 was 13 µM.

For the molecule `COC(=O)C1=C(C)NC(C)=C(C(=O)OC/C=C/c2ccc(O)cc2)C1c1ccccc1C(F)(F)F` (stereo not shown) [Example 14], in assay [1] (setting [4]), the IC50 is 12.8 µM.

Turning to `COC(=O)C1=C(C)NC(C)=C(C(=O)OC/C=C/c2ccc(O)cc2)C1c1ccc(OC)c(OC)c1` (stereo not shown) [Test Compound 20, Methyl 3-(4-hydroxyphenyl)-2(E)-propenyl 1,4-dihydro-2,6-dimethyl-4-(3,4-dimethoxy-phenyl)pyridine-3,5-dicarboxylate], the IC50 in assay [1] (setting [4]) was 6.67 µM; in assay [2], 62.6 µM.

For the molecule `COC(=O)C1=C(C)NC(C)=C(C(=O)OC/C=C/c2ccc(O)c(Cl)c2)C1c1cccc([N+](=O)[O-])c1` (stereo not shown) [Test Compound 11, Methyl 3-(3-chloro-4-hydroxyphenyl)-2(E)-propenyl 1,4-dihydro-2,6-dimethyl-4-(3-nitrophenyl)pyridine-3,5-dicarboxylate], the IC50 in assay [1] (setting [4]) was 10.6 µM; in assay [2], 200 µM.

For `COC(=O)C1=C(C)NC(C)=C(C(=O)OC/C=C/c2nnnn2C)C1c1cccc([N+](=O)[O-])c1` (stereo not shown) [Test Compound 9, Methyl 3-(1-methyl-1,2,3,4-tetrazol-5-yl)-2(E)-propenyl 1,4-dihydro-2,6-dimethyl-4-(3-nitrophenyl)pyridine-3,5-dicarboxylate], the values for the IC50 in assay [1] (setting [4]) and in assay [2] were 11.7 µM and 79.2 µM, respectively.

Consider `COC(=O)C1=C(C)NC(C)=C(C(=O)OC/C=C/C=C/c2ccc(O)cc2)C1c1cccc([N+](=O)[O-])c1` (stereo not shown) [Test Compound 3, Methyl 5-(4-hydroxyphenyl)-2(E),4(E)-pentadienyl 1,4-dihydro-2,6-dimethyl-4-(3-nitrophenyl)-pyridine-3,5-dicarboxylate], for which the IC50 in assay [1] (setting [4]) is 1.73 µM.

Turning to `COC(=O)C1=C(C)NC(C)=C(C(=O)OC/C=C/c2ccc(OC(C)=O)cc2)C1c1cccc([N+](=O)[O-])c1` (stereo not shown) [Test Compound 16, Methyl 3-(4-acetyloxyphenyl)-2(E)-propenyl 1,4-dihydro-2,6-dimethyl-4-(3-nitrophenyl)-pyridine-3,5-dicarboxylate], the IC50 in assay [1] (setting [4]) is 5.92 µM.

Regarding `COC(=O)C1=C(C)NC(C)=C(C(=O)OC/C=C/c2ccc(OC)cc2)C1c1cccc([N+](=O)[O-])c1` (stereo not shown) [Test Compound 8, Methyl 3-(4-methoxyphenyl)-2(E)-propenyl 1,4-dihydro-2,6-dimethyl-4-(3-nitrophenyl)-pyridine-3,5-dihydrocarboxylate], in assay [1] (setting [4]), the IC50 was 5.64 µM.

`COC(=O)C1=C(C)NC(C)=C(C(=O)OC/C=C/c2ccccc2)C1c1cccc([N+](=O)[O-])c1` (stereo not shown) [Test Compound 2, Methyl 3-phenyl-2(E)-propenyl 1,4-dihydro-2,6-dimethyl-4-(3-nitrophenyl)pyridine-3,5-dicarboxylate]: in assay [1] (setting [4]), the IC50 is 5.57 µM.

On to `COC(=O)C1=C(C)NC(C)=C(C(=O)OC/C=C/c2ccc(O)cc2)C1c1ccccc1C` (stereo not shown) [Test Compound 19, Methyl 3-(4-hydroxyphenyl)-2(E)-propenyl 1,4-dihydro-2,6-dimethyl-4-(2-methylphenyl)-pyridine-3,5-dicarboxylate], for which the IC50 in assay [1] (setting [4]) was 13.4 µM.

`COC(=O)C1=C(C)NC(C)=C(C(=O)OC/C=C/c2ccccc2O)C1c1cccc([N+](=O)[O-])c1` (stereo not shown) [Test Compound 13, Methyl 3-(2-hydroxyphenyl)-2(E)-propenyl 1,4-dihydro-2,6-dimethyl-4-(3-nitrophenyl)-pyridine-3,5-dicarboxylate]: in assay [1] (setting [4]), the IC50 was 3.55 µM.
